Values quoted from earlier work in patent US5468754A, “11,7 substituted camptothecin derivatives and formulations of 11,7 substituted camptothecin derivatives and methods for uses thereof” (priority 1994, dated 1995).
Entries after “also recorded” stand apart in the source; their conditions may differ. Where two headings read alike, the source gives them in different places.

What was measured:
Mesothelioma = conditions: Clavel et al, 90 min QDx3 Q21 days; cited from earlier work
Colon Ca = conditions: cited from earlier work
[1] = compared with parent compound camptothecin; cited from earlier work
cervix = conditions: cited from earlier work
[2] = tested on: Refractory or Relapsed Small Cell Lung Cancer; conditions: Masudu et al; 100 mg/m^2 weekly; 16 pts; cited from earlier work
[3] = patients; cited from earlier work
Colon cancer = conditions: Shimada et al; 100 mg/m^2/week or 150 mg/m^2/Q 2 wks; 17 pts; cited from earlier work
[4] = tested on: Human lung cancer cell lines; conditions: human lung cancer cell lines vs normal cells; cited from earlier work
[5] = tested on: Topoisomerase I, purified from calf thymus; conditions: cited from earlier work
[6] = cited from earlier work
renal = conditions: Culine et al, 90 min, 150 mg/m2/wk (50-150); cited from earlier work
[7] = tested on: xenografts of human tumors; conditions: Kawato et al., nude mice; cited from earlier work
[8] = Ohe et al; 120 hr infusion Q3 wks, 40 mg/m2/d (5-40); cited from earlier work
esophagus = conditions: Culine et al, 90 min, 150 mg/m2/wk (50-150); cited from earlier work
[9] = 5-day continuous intravenous infusion; cited from earlier work
[10] = cited from earlier work; remark: listed apart in the source
Leukemia/Lymphoma = conditions: Ohono et al, cited from earlier work
Small Cell Lung Cancer = conditions: Negoro et al, 100 mg/m^2/week, 41 pts, cited from earlier work
ovarian = conditions: Culine et al, 90 min, 150 mg/m2/wk (50-150); cited from earlier work
[11] = tested on: Topoisomerase I, purified from human colon carcinoma cells; conditions: cited from earlier work
[12] = cited from earlier work; remark: listed apart in the source
Breast = conditions: Clavel et al, 90 min QDx3 Q21 days; cited from earlier work
[13] = tested on: Untreated Non Small Cell Lung Cancer; conditions: Fukuoka et al; 100 mg/m^2; 73 pts; cited from earlier work
Cervical cancer = conditions: Takeuchi et al; 100 mg/m^2 weekly, 150 mg/m^2 weeks; 69 pts; cited from earlier work
[14] = compared with parent compound camptothecin; cited from earlier work; remark: listed apart in the source
[15] = Negoro et al, Small Cell Lung Cancer, 100 mg/m^2/week
[16] = Ohono et al, Leukemia/Lymphoma, 62 pts
[17] = Shimada et al, Colon cancer, 17 pts
[18] = Takeuchi et al, Cervical cancer, 69 pts
[19] = Clavel et al, 90 min, QDx3 Q21 days, 115 mg/m2/d (33-115), 37 pts
[20] = Culine et al, 90 min, Q21 days, 150 mg/m2/wk (50-150), 59 pts
[21] = Negoro et al, 30 min infusion weekly, 100 mg/m2 (50-150), 17 pts
[22] = Ohe et al, 120 hr CI Q3 wks, 40 mg/m2/d (5-40), 36 pts
[23] = Rothenberg et al, QWx4 Q42 days, 180 mg/m2/wk (50-180), 32 pts
[24] = Rowinsky et al, 90 min infusion Q21 day, 240 mg/m2 (100-345), 32 pts

Structure (SMILES): CCc1c2c(nc3ccc(OC(=O)N4CCC(N5CCCCC5)CC4)cc13)-c1cc3c(c(=O)n1C2)COC(=O)[C@]3(O)CC [CPT-11]
- Tumor response (partial responses) (Mesothelioma): 1 PR
- Tumor response (partial responses) (Colon Ca; Rothenberg et al, QWx4 Q42 days, 180 mg/m2/wk (50-180)): 2 PRs
- Tumor response (partial responses) (Colon Ca; Rowinsky et al, 90 min infusion Q21 day, 240 mg/m2 (100-345)): 1 PR
- Toxicity [1]: less sporadic toxicities
- Tumor response (partial responses) (cervix; Culine et al, cervix, 90 min, 150 mg/m2/wk (50-150)): 1 PR
- Tumor response (partial responses) (cervix; Rowinsky et al, Cervix Ca, 90 min infusion Q21 day, 240 mg/m2 (100-345)): 1 PR
- RESPONSE (PRs) [2]: 47%
- RESPONSE (PRs, patients) [2]: 7/15
- variability of metabolic conversion of CPT-11 to SN38 [3]: large range of interpatient variability; also recorded: varies from patient to patient
- RESPONSE (Colon cancer): 46%
- RESPONSE (PR, patients) (Colon cancer): 6/17
- conversion of CPT-11 to SN38 [4]: convert less CPT-11 to SN38 than normal cells
- inhibition of Topoisomerase I [5]: inhibited
- Fractional amount of lactone species, CPT-11 CpMax Based ([6]; 50 mg/m2 single dose I.V.): 0.51
- Fractional amount of lactone species, CPT-11 CpMax Based ([6]; 80 mg/m2 single dose I.V.): 0.44
- Fractional amount of lactone species, CPT-11 CpMax Based ([6]; 100 mg/m2 single dose I.V.): 0.53
- Fractional amount of lactone species, CPT-11 CpMax Based ([6]; 125 mg/m2 single dose I.V.): 0.55
- Fractional amount of lactone species, CPT-11 CpMax Based ([6]; 150 mg/m2 single dose I.V.): 0.42
- Fractional amount of lactone species, CPT-11 CpMax Based ([6]; 180 mg/m2 single dose I.V.): 0.42
- overall fractional concentration of the lactone species ([6]; through a range of doses, total AUC and CpMax data): fairly constant through a range of doses
- Tumor response (partial responses) (renal): 1 PR
- sensitivity of human tumors vs their ability to produce SN38 [7]: independent of their ability to produce SN38
- Tumor response [8]: None
- Tumor response (partial responses) (esophagus): 1 PR
- conversion of CPT-11 to SN38 [9]: saturable process
- Toxicity ([10]; Fukuoka et al, Untreated Non Small Cell Lung Cancer, 100 mg/m^2): Neutropenia; also recorded: diarrhea; also recorded: nausea; also recorded: vomiting; also recorded: anorexia; also recorded: alopecia
- pneumonitis ([10]; Masudu et al, 100 mg/m^2 weekly, 16 pts): 12.5%
- Toxicity ([10]; Masudu et al, Refractory or Relapsed Small Cell Lung Cancer, 100 mg/m^2 weekly): Neutropenia; also recorded: diarrhea
- N/V [10, 15]: 61.5%
- alopecia [10, 15]: 40.0%
- diarrhea [10, 15]: 53.8%
- Gastrointestinal [10, 16]: 76%
- Toxicity [10, 16]: Thromocytopenia
- N/V [10, 17]: 35%
- diarrhea [10, 17]: 24%
- N/V [10, 18]: 51%
- alopecia [10, 18]: 38.1%
- diarrhea [10, 18]: 39.1%
- RESPONSE (RR) (Leukemia/Lymphoma; 20 mg/m^2 bid x7): 25 % RR
- RESPONSE (PR) (Leukemia/Lymphoma; 40 mg/m^2 x5): 34 % PR
- RESPONSE (Leukemia/Lymphoma; 200 mg Q3): No resp.
- RESPONSE (Small Cell Lung Cancer; 2 CRs and 7 PRs): 33.3%
- RESPONSE (CRs) (Small Cell Lung Cancer): 2 CRs
- RESPONSE (PRs) (Small Cell Lung Cancer): 7 PRs
- Tumor response (partial responses) (ovarian): 1 PR
- inhibition of Topoisomerase I [11]: inhibited
- Toxicity [12, 19]: diarrhea; also recorded: nausea; also recorded: vomiting; also recorded: alopecia
- Toxicity (Dose Limiting Toxicity) [12, 19]: Neutropenia
- Toxicity [12, 20]: vomiting; also recorded: alopecia; also recorded: fatigue; also recorded: stomatitis
- Toxicity (Dose Limiting Toxicity) [12, 20]: Neutropenia; also recorded: diarrhea
- Toxicity [12, 21]: N/V and alopecia and liver
- Toxicity (Dose Limiting Toxicity) [12, 21]: Neutropenia; also recorded: Diarrhea
- Toxicity [12, 22]: nausea; also recorded: vomiting; also recorded: thromobo-; also recorded: anemia; also recorded: liver
- Toxicity (Dose Limiting Toxicity) [12, 22]: Diarrhea
- major reported, dose-limiting toxicities ([12]; Phase I and Phase II clinical trials of CPT-11): Neutropenia and diarrhea
- Toxicity [12, 23]: Neutropenia; also recorded: nausea; also recorded: vomiting; also recorded: alopecia
- Toxicity (Dose Limiting Toxicity) [12, 23]: Diarrhea
- Toxicity [12, 24]: vomiting and diarrhea and pain and flushing
- Toxicity (Dose Limiting Toxicity) [12, 24]: Neutropenia
- Tumor response (partial responses) (Breast): 1 PR
- RESPONSE (PRs) [13]: 31.9%
- RESPONSE (PRs, patients) [13]: 23/72
- RESPONSE (CR) (Cervical cancer): SCR
- RESPONSE (PR) (Cervical cancer): 8 PR
- RESPONSE (RR) (Cervical cancer): 23.6%
- antitumor activity [14]: retain the significant antitumor activity of the parent compound
